Experimental data as given in patent US7531646B2, “β-D-ribosidase activity indicators with a chromogenic substrate” (priority 2001, dated 2009).
Counter-ions that a name gives are not always drawn.

How the values were obtained:
Assay type in all cases: cell-based
[1] = tested on: Haemolytic streptococcus B; experiment: Substrate hydrolysis on Columbia agar; conditions: 300 mg/l, 18 hours
E. coli 0157 = experiment: Substrate hydrolysis on Columbia agar; conditions: 300 mg/l, 18 hours
Salmonella orthmarchen = experiment: Substrate hydrolysis on Columbia agar; conditions: Salmonella orthmarchen SAX 59; 300 mg/l; 18 hours
Vibrio anguillarum = experiment: Substrate hydrolysis on Columbia agar; conditions: Vibrio anguillarum NCTC 12159; 300 mg/l; 18 hours
Vibrio parahaemolyticus = experiment: Substrate hydrolysis on Columbia agar; conditions: 300 mg/l, 18 hours
[2] = tested on: Haemolytic streptococcus A; experiment: Substrate hydrolysis on Columbia agar; conditions: 300 mg/l, 18 hours
Gram positive bacteria = experiment: Substrate hydrolysis on Columbia agar, summary of screen; conditions: of 74 Gram positive bacteria tested; 300 mg/l; 18 hours
Vibrio metschnikovii = experiment: Substrate hydrolysis on Columbia agar; conditions: Vibrio metschnikovii NCTC 8443; 300 mg/l; 18 hours
Enterococcus mundtii = experiment: Substrate hydrolysis on Columbia agar; conditions: Enterococcus mundtii NCTC 12363; 300 mg/l; 18 hours
Serratia spp. = experiment: Substrate hydrolysis on Columbia agar; conditions: 300 mg/l, 18 hours
Vibrio harveyi = experiment: Substrate hydrolysis on Columbia agar; conditions: Vibrio harveyi NCTC 11346; 300 mg/l; 18 hours
Streptococcus crista = experiment: Substrate hydrolysis on Columbia agar; conditions: Streptococcus crista NCTC 12479; 300 mg/l; 18 hours
M. morganii = experiment: Substrate hydrolysis on Columbia agar; conditions: 300 mg/l, 18 hours
P. penneri = experiment: Substrate hydrolysis on Columbia agar; conditions: P. penneri PPE 1; 300 mg/l; 18 hours
A. baumanii = experiment: Substrate hydrolysis on Columbia agar; conditions: A. baumanii ATCC 19606; 300 mg/l; 18 hours
Providencia stuartii = experiment: Substrate hydrolysis on Columbia agar; conditions: 300 mg/l, 18 hours
Salmonella motevideo = experiment: Substrate hydrolysis on Columbia agar; conditions: Salmonella motevideo SAX 55; 300 mg/l; 18 hours
Source text: (§1) This was achieved using a densitometer.
(§2) The same method was used as in Example 1.

Shigella flexneri = experiment: Substrate hydrolysis on Columbia agar; conditions: 300 mg/l, 18 hours
Source text: as §1, §2

Salmonella alachia = experiment: Substrate hydrolysis on Columbia agar; conditions: Salmonella alachia SAX 60; 300 mg/l; 18 hours
Source text: as §1, §2

Shigella sonnei = experiment: Substrate hydrolysis on Columbia agar; conditions: 300 mg/l, 18 hours
Source text: as §1, §2

Vibrio mimicus = experiment: Substrate hydrolysis on Columbia agar; conditions: Vibrio mimicus NCTC 11435; 300 mg/l; 18 hours
Source text: as §1, §2

Shigella boydii = experiment: Substrate hydrolysis on Columbia agar; conditions: 300 mg/l, 18 hours
Source text: as §1, §2

P. mirabilis = experiment: Substrate hydrolysis on Columbia agar; conditions: 300 mg/l, 18 hours
Streptococcus salivarius = experiment: Substrate hydrolysis on Columbia agar; conditions: Streptococcus salivarius NCTC 8618; 300 mg/l; 18 hours
Streptococcus milleri = experiment: Substrate hydrolysis on Columbia agar; conditions: Streptococcus milleri wild; 300 mg/l; 18 hours
[3] = tested on: Staphylococcus epidermidis; experiment: Substrate hydrolysis on Columbia agar; conditions: 300 mg/l, 18 hours
[4] = tested on: Streptococcus vestibularis; experiment: Substrate hydrolysis on Columbia agar; conditions: Streptococcus vestibularis NCTC 12166; 300 mg/l; 18 hours
P. rettgeri = experiment: Substrate hydrolysis on Columbia agar; conditions: P. rettgeri NCTC 7475; 300 mg/l; 18 hours
Vibrio furnissii = experiment: Substrate hydrolysis on Columbia agar; conditions: Vibrio furnissii NCTC 11218; 300 mg/l; 18 hours
Bacillus licusniforms = experiment: Substrate hydrolysis on Columbia agar; conditions: Bacillus licusniforms NCIMB 9375; 300 mg/l; 18 hours

SMILES: O=c1cc(-c2ccc(OC3OC(CO)C(O)C3O)c(O)c2)oc2ccccc12 [DHF-riboside, 3′,4′-dihydroxyflavone-4′-β-D-ribofuranoside Sodium Salt]
- Hydrolysis by Gram positive organisms ([1]; Haemolytic streptococcus B 1): −
- Hydrolysis by Gram positive organisms ([1]; Haemolytic streptococcus B 2): −
- Hydrolysis by Gram positive organisms ([1]; Haemolytic streptococcus B 3): −
- Hydrolysis by Gram negative bacteria (E. coli 0157; E. coli 0157 NCTC 12079): ++
- Hydrolysis by Gram negative bacteria (E. coli 0157; E. coli 0157 NCTC 12080): ++
- Hydrolysis by Gram negative bacteria (E. coli 0157; E. coli 0157 NCTC 12900): ++
- Hydrolysis by Gram negative bacteria (E. coli 0157; E. coli 0157 NCTC 13125): ++
- Hydrolysis by Gram negative bacteria (E. coli 0157; E. coli 0157 NCTC 13126): ++
- Hydrolysis by Gram negative bacteria (E. coli 0157; E. coli 0157 NCTC 13127): ++
- Hydrolysis by Gram negative bacteria (E. coli 0157; E. coli 0157 NCTC 13128): ++
- Hydrolysis by Gram negative bacteria (Salmonella orthmarchen): ++
- Hydrolysis by Gram negative bacteria (Vibrio anguillarum): −
- Hydrolysis by Gram negative bacteria (Vibrio parahaemolyticus; Vibrio parahaemolyticus NCTC 10441): −
- Hydrolysis by Gram negative bacteria (Vibrio parahaemolyticus; Vibrio parahaemolyticus NCTC 10884): −
- Hydrolysis by Gram negative bacteria (Vibrio parahaemolyticus; Vibrio parahaemolyticus NCTC 10903): −
- Hydrolysis by Gram negative bacteria (Vibrio parahaemolyticus; Vibrio parahaemolyticus NCTC 11344): −
- Hydrolysis by Gram negative bacteria (Vibrio parahaemolyticus; Vibrio parahaemolyticus NCTC 12205): −
- Hydrolysis by Gram positive organisms ([2]; Haemolytic streptococcus A 1): −
- Hydrolysis by Gram positive organisms ([2]; Haemolytic streptococcus A 2): −
- Hydrolysis by Gram positive organisms ([2]; Haemolytic streptococcus A 3): −
- Gram positive bacteria tested that hydrolysed the substrate (Gram positive bacteria): 30.8%
- Hydrolysis by Gram negative bacteria (Vibrio metschnikovii): ++
- Hydrolysis by Gram positive organisms (Enterococcus mundtii): +
- Hydrolysis by Gram negative bacteria (Serratia spp.; Serratia spp. SEX 1): ++
- Hydrolysis by Gram negative bacteria (Serratia spp.; Serratia spp. SEX 2): ++
- Hydrolysis by Gram negative bacteria (Serratia spp.; Serratia spp. SEX 3): ++
- Hydrolysis by Gram negative bacteria (Serratia spp.; Serratia spp. SEX 4): ++
- Hydrolysis by Gram negative bacteria (Vibrio harveyi): ++
- Hydrolysis by Gram positive organisms (Streptococcus crista): −
- Hydrolysis by Gram negative bacteria (M. morganii; M. morganii MMO 1): +
- Hydrolysis by Gram negative bacteria (M. morganii; M. morganii MMO 2): +
- Hydrolysis by Gram negative bacteria (M. morganii; M. morganii NCTC 235): −
- Hydrolysis by Gram negative bacteria (P. penneri): −
- Hydrolysis by Gram negative bacteria (A. baumanii): −
- Hydrolysis by Gram negative bacteria (Providencia stuartii; Providencia stuartii PST 1): +
- Hydrolysis by Gram negative bacteria (Providencia stuartii; Providencia stuartii PST 2): +
- Hydrolysis by Gram negative bacteria (Salmonella motevideo): ++
- Hydrolysis by Gram negative bacteria (Shigella flexneri; Shigella flexneri NCTC 8192): ++
- Hydrolysis by Gram negative bacteria (Shigella flexneri; Shigella flexneri NCTC 9723): ++
- Hydrolysis by Gram negative bacteria (Shigella flexneri; Shigella flexneri NCTC 9780): ++
- Hydrolysis by Gram negative bacteria (Salmonella alachia): ++
- Hydrolysis by Gram negative bacteria (Shigella sonnei; Shigella sonnei NCTC 8219): ++
- Hydrolysis by Gram negative bacteria (Shigella sonnei; Shigella sonnei NCTC 8574): ++
- Hydrolysis by Gram negative bacteria (Shigella sonnei; Shigella sonnei NCTC 8586): ++
- Hydrolysis by Gram negative bacteria (Shigella sonnei; Shigella sonnei NCTC 9774): ++
- Hydrolysis by Gram negative bacteria (Shigella sonnei; Shigella sonnei NCTC 10352): ++
- Hydrolysis by Gram negative bacteria (Vibrio mimicus): −
- Hydrolysis by Gram negative bacteria (Shigella boydii; Shigella boydii NCTC 9327): ++
- Hydrolysis by Gram negative bacteria (Shigella boydii; Shigella boydii NCTC 9732): ++
- Hydrolysis by Gram negative bacteria (Shigella boydii; Shigella boydii NCTC 9850): ++
- Hydrolysis by Gram negative bacteria (P. mirabilis; P. mirabilis NCTC 10975): −
- Hydrolysis by Gram negative bacteria (P. mirabilis; P. mirabilis PMI 1): −
- Hydrolysis by Gram negative bacteria (P. mirabilis; P. mirabilis PMI 2): −
- Hydrolysis by Gram positive organisms (Streptococcus salivarius): −
- Hydrolysis by Gram positive organisms (Streptococcus milleri): −
- Hydrolysis by Gram positive organisms ([3]; Staphylococcus epidermidis RB60): ++
- Hydrolysis by Gram positive organisms ([3]; Staphylococcus epidermidis RB62): +
- Hydrolysis by Gram positive organisms ([3]; Staphylococcus epidermidis RB63): +
- Hydrolysis by Gram positive organisms ([3]; Staphylococcus epidermidis RB64): +
- Hydrolysis by Gram positive organisms ([3]; Staphylococcus epidermidis RB65): +
- Hydrolysis by Gram positive organisms [4]: −
- Hydrolysis by Gram negative bacteria (P. rettgeri): +
- Hydrolysis by Gram negative bacteria (Vibrio furnissii): −
- Hydrolysis by Gram positive organisms (Bacillus licusniforms): −
